Legend:
rCYP2C8 = rCYP2C8 (Homo sapiens, UniProt P10632); assay: Compound 1 loss on incubation with rCYP enzymes; type: in vitro ADME; details: 120 minutes of incubation
BCRP = target: T1, BCRP (Homo sapiens, UniProt Q9UNQ0); assay: Transporter inhibition, MDCKII-BCRP cells; type: in vitro ADME
T1 sequence (Q9UNQ0 1-655): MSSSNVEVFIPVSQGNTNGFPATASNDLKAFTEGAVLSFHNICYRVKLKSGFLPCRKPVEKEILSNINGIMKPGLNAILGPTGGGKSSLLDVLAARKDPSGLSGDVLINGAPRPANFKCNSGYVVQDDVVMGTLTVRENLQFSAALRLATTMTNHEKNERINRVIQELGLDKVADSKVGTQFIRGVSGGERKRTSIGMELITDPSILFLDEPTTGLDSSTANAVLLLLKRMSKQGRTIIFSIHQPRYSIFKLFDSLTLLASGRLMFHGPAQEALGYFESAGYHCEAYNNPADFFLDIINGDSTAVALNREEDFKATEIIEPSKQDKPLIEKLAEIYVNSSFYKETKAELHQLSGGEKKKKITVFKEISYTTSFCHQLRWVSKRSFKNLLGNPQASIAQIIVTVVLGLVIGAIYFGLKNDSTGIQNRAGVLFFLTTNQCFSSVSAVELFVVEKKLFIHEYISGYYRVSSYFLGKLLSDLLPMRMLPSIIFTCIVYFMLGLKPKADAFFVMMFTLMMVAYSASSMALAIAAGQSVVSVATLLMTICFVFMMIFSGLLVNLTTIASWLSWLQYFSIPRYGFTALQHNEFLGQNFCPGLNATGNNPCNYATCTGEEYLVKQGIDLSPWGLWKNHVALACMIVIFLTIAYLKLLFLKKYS

MATE1 = target: T2, MATE1 (Homo sapiens, UniProt Q96FL8); assay: Transporter inhibition, HEK293 cells; type: in vitro ADME
T2 construct: expressed in transfected cells; host or cells: HEK293

OCT1 = target: T3, OCT1 (Homo sapiens, UniProt O15245); assay: Transporter substrate evaluation, HEK293 cells; type: in vitro ADME; details: 1 and 10 μM
T3 construct: expressed in transfected cells; host or cells: HEK293
T3 sequence (O15245 1-554): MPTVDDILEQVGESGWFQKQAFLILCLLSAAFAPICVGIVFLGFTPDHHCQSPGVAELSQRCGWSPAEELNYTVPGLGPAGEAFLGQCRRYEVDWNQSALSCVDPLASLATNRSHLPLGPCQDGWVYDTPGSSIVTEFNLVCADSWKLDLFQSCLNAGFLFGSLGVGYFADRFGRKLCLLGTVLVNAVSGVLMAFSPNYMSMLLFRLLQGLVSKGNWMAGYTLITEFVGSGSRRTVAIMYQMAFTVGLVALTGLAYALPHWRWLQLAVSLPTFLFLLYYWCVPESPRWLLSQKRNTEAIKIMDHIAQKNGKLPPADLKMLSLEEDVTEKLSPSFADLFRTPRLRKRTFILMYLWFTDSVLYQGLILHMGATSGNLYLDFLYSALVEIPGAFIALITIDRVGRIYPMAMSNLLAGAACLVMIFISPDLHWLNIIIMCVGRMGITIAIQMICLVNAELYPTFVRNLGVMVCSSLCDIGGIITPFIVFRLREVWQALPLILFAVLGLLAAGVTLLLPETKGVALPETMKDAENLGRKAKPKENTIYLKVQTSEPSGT

[1] = tested on: peripheral blood lymphocyte (PBL) counts; assay: Phase 1 single dosing study: peripheral blood lymphocyte counts; type: in vivo, human
Protocol: Compound 1 was administered as the L-arginine salt.
There were no other clinically significant safety issues with respect to vital signs, ECGs, pulmonary function tests, ophthalmoscopy, or clinical laboratory tests with the exception of expected pharmacological effects on peripheral blood lymphocyte counts. Dosing at the 3 and 5 mg induced a dose responsive decline in the absolute number of peripheral blood B cells, T cells, NK cells, and all T cell subsets except TEM cells. Total peripheral blood lymphocyte (PBL) counts were reduced by 2-4 hours after dosing, reaching a nadir by hour 8 which persisted for 24 hours with recovery to baseline over the next 4 days. PBL counts were reduced by ˜40% and ˜55% at the 3 mg and 5 mg dose levels. […] These findings are therefore consistent with the anticipated pharmacodynamic effects of S1P receptor agonists in preclinical studies and in humans (Gergely et al., Br Pharmacol 167(5):1035-1047, 2012; Brossard et al., Br J Clin Pharmacol 2013 April 18. doi:10.1111/bcp.12129. [Epub ahead of print] PubMed PMID: 23594176, and Kovarik et al., J Clin Pharmacol 44(5):532-537, 2004.)

OATP1B1 = target: T4, OATP1B1 (Homo sapiens, UniProt Q9Y6L6)
T4 sequence (Q9Y6L6 1-691): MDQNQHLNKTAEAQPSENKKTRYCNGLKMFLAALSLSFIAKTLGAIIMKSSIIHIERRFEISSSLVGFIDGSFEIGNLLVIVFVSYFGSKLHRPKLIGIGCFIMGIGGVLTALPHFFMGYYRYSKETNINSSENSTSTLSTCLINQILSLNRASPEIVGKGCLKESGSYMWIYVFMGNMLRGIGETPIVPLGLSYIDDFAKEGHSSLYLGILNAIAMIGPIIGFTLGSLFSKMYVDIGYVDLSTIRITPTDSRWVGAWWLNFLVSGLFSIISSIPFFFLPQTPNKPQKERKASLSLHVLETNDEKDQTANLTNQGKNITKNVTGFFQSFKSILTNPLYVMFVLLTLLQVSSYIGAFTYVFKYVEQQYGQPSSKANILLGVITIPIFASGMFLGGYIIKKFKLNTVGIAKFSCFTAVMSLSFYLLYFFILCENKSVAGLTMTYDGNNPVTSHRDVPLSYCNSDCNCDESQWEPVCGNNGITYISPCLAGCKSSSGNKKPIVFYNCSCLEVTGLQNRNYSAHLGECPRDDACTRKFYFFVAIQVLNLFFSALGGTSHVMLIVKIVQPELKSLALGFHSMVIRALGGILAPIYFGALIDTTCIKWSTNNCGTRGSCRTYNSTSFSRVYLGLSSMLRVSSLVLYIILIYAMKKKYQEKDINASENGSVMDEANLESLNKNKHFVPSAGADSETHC

P-gp = P-gp (Homo sapiens, UniProt P08183); assay: Transporter inhibition, Caco-2 cells
[2] = Phase 1 single dosing study: safety and tolerability

T2 sequence (Q96FL8 whole entry): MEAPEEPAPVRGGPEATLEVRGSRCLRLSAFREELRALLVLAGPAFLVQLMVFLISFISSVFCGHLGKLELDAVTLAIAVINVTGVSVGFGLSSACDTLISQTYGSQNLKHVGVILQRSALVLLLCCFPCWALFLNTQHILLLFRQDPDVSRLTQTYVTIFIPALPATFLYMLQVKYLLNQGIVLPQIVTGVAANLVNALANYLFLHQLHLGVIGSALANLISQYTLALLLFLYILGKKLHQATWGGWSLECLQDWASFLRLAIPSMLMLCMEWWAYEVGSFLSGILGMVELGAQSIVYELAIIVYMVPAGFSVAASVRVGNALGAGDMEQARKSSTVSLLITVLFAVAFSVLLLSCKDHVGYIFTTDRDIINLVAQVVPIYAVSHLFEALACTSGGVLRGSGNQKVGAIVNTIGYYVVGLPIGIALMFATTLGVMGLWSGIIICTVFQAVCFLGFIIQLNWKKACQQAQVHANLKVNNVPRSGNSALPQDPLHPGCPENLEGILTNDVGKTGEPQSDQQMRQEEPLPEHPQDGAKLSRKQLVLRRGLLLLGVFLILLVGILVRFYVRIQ
P-gp, sequence (P08183 whole entry): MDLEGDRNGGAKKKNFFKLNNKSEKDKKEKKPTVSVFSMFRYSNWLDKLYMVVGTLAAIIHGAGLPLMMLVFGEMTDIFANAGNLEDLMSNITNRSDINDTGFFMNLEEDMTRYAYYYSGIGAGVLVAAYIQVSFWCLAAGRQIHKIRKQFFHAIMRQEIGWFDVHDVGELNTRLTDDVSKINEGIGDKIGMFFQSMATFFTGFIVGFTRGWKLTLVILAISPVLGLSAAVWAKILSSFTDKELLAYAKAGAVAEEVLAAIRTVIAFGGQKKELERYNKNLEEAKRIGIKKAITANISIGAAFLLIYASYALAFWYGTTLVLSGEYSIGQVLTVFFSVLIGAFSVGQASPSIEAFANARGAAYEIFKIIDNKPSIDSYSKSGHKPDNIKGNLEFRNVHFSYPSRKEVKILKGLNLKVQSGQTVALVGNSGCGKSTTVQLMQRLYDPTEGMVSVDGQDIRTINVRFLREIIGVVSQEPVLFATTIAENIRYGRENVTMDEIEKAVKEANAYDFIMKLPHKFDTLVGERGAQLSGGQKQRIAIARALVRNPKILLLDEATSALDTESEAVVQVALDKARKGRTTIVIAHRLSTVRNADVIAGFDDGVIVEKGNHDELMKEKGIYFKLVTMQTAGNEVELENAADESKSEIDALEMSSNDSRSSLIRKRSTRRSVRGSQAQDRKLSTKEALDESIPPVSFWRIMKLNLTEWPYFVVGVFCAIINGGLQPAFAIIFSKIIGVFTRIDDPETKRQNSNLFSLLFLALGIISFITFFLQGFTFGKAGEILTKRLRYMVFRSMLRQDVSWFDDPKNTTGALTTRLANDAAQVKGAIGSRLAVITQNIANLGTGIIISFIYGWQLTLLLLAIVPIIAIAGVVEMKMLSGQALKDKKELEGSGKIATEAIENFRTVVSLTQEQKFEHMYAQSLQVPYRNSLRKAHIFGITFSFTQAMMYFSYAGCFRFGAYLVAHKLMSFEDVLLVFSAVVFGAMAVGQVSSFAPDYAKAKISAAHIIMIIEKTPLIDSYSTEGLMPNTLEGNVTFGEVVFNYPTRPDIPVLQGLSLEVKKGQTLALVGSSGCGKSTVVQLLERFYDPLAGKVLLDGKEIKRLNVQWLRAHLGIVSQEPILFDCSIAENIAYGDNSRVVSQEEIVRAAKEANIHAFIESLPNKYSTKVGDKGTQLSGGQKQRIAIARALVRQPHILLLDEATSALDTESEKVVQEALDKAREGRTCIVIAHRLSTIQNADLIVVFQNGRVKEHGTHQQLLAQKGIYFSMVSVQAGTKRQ
rCYP2C8, sequence (P10632 whole entry): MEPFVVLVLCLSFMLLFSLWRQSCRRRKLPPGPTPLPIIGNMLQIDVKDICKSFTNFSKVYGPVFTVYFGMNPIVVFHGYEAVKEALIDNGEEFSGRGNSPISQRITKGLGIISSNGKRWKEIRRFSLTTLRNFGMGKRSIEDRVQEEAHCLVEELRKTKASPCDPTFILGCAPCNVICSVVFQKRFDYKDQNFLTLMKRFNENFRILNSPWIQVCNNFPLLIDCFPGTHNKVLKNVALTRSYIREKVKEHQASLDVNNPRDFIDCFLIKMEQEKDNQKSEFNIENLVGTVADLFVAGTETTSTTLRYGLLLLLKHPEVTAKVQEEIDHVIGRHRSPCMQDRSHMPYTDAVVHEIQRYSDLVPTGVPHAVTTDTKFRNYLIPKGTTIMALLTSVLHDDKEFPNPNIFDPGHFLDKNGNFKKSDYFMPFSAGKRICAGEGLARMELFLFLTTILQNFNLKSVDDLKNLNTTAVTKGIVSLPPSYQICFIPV

O=C(O)C[C@H]1CCc2c1[nH]c1ccc(OCc3ccc(C4CCCC4)c(C(F)(F)F)c3)cc21 [Compound 1, (R)-2-(7-(4-cyclopentyl-3-(trifluoromethyl)benzyloxy)-1,2,3,4-tetrahydrocyclopenta[b]indol-3-yl)acetic acid]
Compound 1 loss with rCYP2C8 (rCYP2C8): up to 75% | Reduction of corrected efflux ratio of prazosin (1 μM) across MDCKII-BCRP cells (BCRP; 10 and 100 μM, post-assay TEER below acceptance criteria): more than 50% | IC50 (BCRP; MDCKII-BCRP cells, prazosin (1 μM), 0.03 to 30 μM): 35.7 µM | IC50 (MATE1; HEK293 cells, [14C]-metformin (10 μM), 1 and 10 μM tested): > 10 µM | Inhibition of MATE1 (MATE1; up to 10 μM): less than 50% | Potential substrate of OCT1 (OCT1; HEK293 cells): not a substrate of OCT1 and not a substrate and No | Uptake ratio into OCT1-expressing cells (OCT1; absence and presence of quinidine (100 μM)): below two | Reduction of PBL counts ([1]; 3 mg single dose): ~40% | Reduction of PBL counts ([1]; 5 mg single dose): ~55% | Time after dosing by which total PBL counts were reduced ([1]; 3 and 5 mg): 2 to 4 h | Time of PBL nadir ([1]; 3 and 5 mg, persisted for 24 hours): ≤ 8 h | Recovery of PBL counts to baseline ([1]; after nadir): 4 days | IC50 (OATP1B1): ~10 µM | P-gp inhibition (P-gp; 10 μM Compound 1): no P-gp inhibition | Reduction of efflux ratio of digoxin (10 μM) across Caco-2 cells (P-gp; 100 μM Compound 1): 50% | Deaths or serious adverse events ([2]; single doses 0.1 to 5 mg): no deaths or serious adverse events | Maximum tolerated dose ([2]; single dosing, L-arginine salt): 3 mg

Source: patent publication US20210228545A1, “METHODS OF TREATING CONDITIONS RELATED TO THE S1P1 RECEPTOR” (Arena Pharmaceuticals, Inc., priority 2018, published 2021)
